# Results reported in patent publication US5952504A, “4-amino-3-acylnaphthyridine derivatives” (Yungjin Pharmaceutical Company, Ltd., priority 1995, dated 1999).
# Where two headings read alike, the source gives them in different places.
# Key:
# [1] = tested on: indomethacin-induced lesions; assay: Inhibition of indomethacin-induced lesions; type: in vivo, male Sprague-Dawley rats; settings: Rattus norvegicus; oral, before indomethacin 35 mg/kg s.c.; read-out: Anti-ulcer activity (ED50), Indomethacin
# Description: 3) Inhibition of indomethacin-induced lesions Inhibitory activities of the inventive compounds on the indomethacin-induced lesions were measured by using male Sprague-Dawley rats. Thus, rats were starved for 48 hours and prohibited from being supplied with water for 2 hours, and 35 mg/kg of indomethacin (Sigma Co.) as a causative of gastric lesions was subcutaneously administered. Before indomethacin treatment, the inventive compounds shown in Table 3 or omeprazole as a positive control was orally administered, and the inhibitions of lesions by the action of the test compounds were observed.
# H^+ /K^+ ATPase = biological target: T1, H^+ /K^+ ATPase (Oryctolagus cuniculus, UniProt P27112); assay: Inhibition of H^+ /K^+ ATPase (rabbit gastric mucosa vesicles); type: biochemical
# T1 construct: from tissue; host or cells: rabbit gastric mucosa, membrane vesicles (differential and Ficoll density gradient centrifugation)
# Description: 1. Inhibition of H^+ /K^+ ATPase Inhibition of H^+ /K^+ ATPase, a proton carrying enzyme, was measured by following the procedure of Saccomani et al. [Biochim. Biophy. Acta., 465, 311-330 (1977)]. Thus, a homogenate of the gastric mucose membrane of rabbit was used to prepare vesicles containing H^+ /K^+ ATPase by employing differential centrifugation and discontinuous density gradient centrifugation in Ficoll. […] Omeprazole was used as a control. A solution containing 2 mM of magnesium chloride, 40 mM of imidazole buffer (pH 7.4), 10 mM of potassium chloride and […] of ATP was added to the mixture. The resulting mixture was incubated at 37° C. for 15 minutes and the reaction was terminated by adding 1 ml of ice-cold 22% solution of trichloroacetic acid. Enzyme activity was calculated by measuring the separated inorganic phosphate by following the method of Fiske and Subbarow [J. Biol. Chem., 66, 375-440 (1925)].
# [2] = tested on: acetic acid-induced ulcer; assay: Inhibition of acetic acid-induced ulcer; type: in vivo, male Sprague-Dawley rats; settings: oral, 10 days
# Description: 5) Inhibition of acetic acid-induced ulcer Inhibitory activity of the inventive compound on the acetic acid-induced ulcer was evaluated by using male Sprague-Dawley rats. Thus, rats were starved for 5 hours prior to carrying out the experiment. 20 Microliter of 30% acetic acid was injected into the submucosal layer of the stomach using a microsyringe to induce a circular ulcer on the stomach. […] The percentages of the healing of the ulcer were calculated by comparing them with that of reference group.
# ethanol-induced lesions = assay: Inhibition of ethanol-induced lesions; type: in vivo, male Sprague-Dawley rats; settings: Rattus norvegicus; oral, 30 min before absolute ethanol (5 ml/kg); read-out: Anti-ulcer activity (ED50), Ethanol
# Description: 1) Inhibition of ethanol-induced lesions Inhibitory activity of the inventive compound on the ethanol-induced lesions was measured by using male Sprague-Dawley rats weighing 180-200 g. Thus, rats were starved for 24 hours, and the inventive compounds shown in Table 3 or omeprazole as a positive control was orally administered. Thirty minutes later, absolute ethanol (5 ml/kg) was orally administered. 1.5 hours later, the stomach was removed, and the degree of the wound of the stomach was measured.
# stress-induced ulcer = assay: Inhibition of stress-induced ulcer; type: in vivo, male Sprague-Dawley rats; settings: Rattus norvegicus; oral, water immersion stress; read-out: Anti-ulcer activity (ED50), Stress
# Description: 4) Inhibition of stress-induced ulcer Inhibitory activity of the inventive compound on the stress-induced ulcer was evaluated by using male Spraque-Dawley rats. Thus, rats were starved for 24 hours prior to carrying out the experiment. Stress is an important factor for causing gastric ulcer, and was applied to rats by immersing them in water. Then, the inventive compounds shown in Table 3 or omeprazole as a control was orally administered, and the inhibitions of ulcer by the action of the test compounds were observed.
# ICR mice = assay: Acute toxicity (oral, 14 days); type: in vivo; settings: 6 animals
# Description: (§1) A median lethal dose (LD50) an index of acute toxicity was measured and is Table 4
# [3] = Acute toxicity (oral, 14 days); type: in vivo; settings: mouse, in vivo, po; for mortality at 336 h: read-out: Lethality (%); for LD50 at 336 h: 14 days
# Description: as §1
# mepirizole-induced ulcer = assay: Inhibition of mepirizole-induced ulcer; type: in vivo, male Sprague-Dawley rats; settings: Rattus norvegicus; oral, 30 min before mepirizole (250 mg/kg); duodenum; read-out: Anti-ulcer activity (ED50), Mepirizole
# Description: 2) Inhibition of mepirizole-induced ulcer Inhibitory activity of the inventive compound on the mepirizole-induced ulcer was measured by using male Spraque-Dawley rats weighing 200-230 g. Thus, rats were not starved, and the inventive compounds shown in Table 3 or omeprazole as a positive control was orally administered. Thirty minutes later, mepirizole suspended in 1% CMC (250 mg/kg) was orally administered. […], the duodena were removed. The degree of the ulcer thereof was measured.
# gastric secretion = assay: Inhibition of gastric secretion (Shay ligation); type: in vivo, male Sprague-Dawley rats; settings: 4 hours, pylorus-ligated rats; for ED50: Rattus norvegicus, into duodenum, read-out: Gastric juice Secretion Inhibition (ED50); for Gastric juice Secretion Inhibition (% at 12.5 mg/kg): 12.5 mg/kg into duodenum
# Description: 2. Inhibition of Gastric Secretion
# Inhibition of gastric secretion was measured by following the procedure of Shay ligation (Gastroenterology, 1954, 26, 903). Thus, male Sprague-Dawleyrats weighing 180-200 g were starved for 24 hours and their pylorus were ligated. Then, the inventive compounds shown in Table 2 or omeprazole as a positive control was administered into duodenum. Four hours later, the stomach was removed, and the acidity and amount of gastric juice were measured. By comparing the measured values with the acidity and amount of the gastric juice of the stomach of the reference group to which no test compound was administered, the inhibition of gastric secretion was calculated.
# [4] = preincubation 30 min, 37° C., pH 7.4
# T1 sequence (P27112 2-1035 limits assumed): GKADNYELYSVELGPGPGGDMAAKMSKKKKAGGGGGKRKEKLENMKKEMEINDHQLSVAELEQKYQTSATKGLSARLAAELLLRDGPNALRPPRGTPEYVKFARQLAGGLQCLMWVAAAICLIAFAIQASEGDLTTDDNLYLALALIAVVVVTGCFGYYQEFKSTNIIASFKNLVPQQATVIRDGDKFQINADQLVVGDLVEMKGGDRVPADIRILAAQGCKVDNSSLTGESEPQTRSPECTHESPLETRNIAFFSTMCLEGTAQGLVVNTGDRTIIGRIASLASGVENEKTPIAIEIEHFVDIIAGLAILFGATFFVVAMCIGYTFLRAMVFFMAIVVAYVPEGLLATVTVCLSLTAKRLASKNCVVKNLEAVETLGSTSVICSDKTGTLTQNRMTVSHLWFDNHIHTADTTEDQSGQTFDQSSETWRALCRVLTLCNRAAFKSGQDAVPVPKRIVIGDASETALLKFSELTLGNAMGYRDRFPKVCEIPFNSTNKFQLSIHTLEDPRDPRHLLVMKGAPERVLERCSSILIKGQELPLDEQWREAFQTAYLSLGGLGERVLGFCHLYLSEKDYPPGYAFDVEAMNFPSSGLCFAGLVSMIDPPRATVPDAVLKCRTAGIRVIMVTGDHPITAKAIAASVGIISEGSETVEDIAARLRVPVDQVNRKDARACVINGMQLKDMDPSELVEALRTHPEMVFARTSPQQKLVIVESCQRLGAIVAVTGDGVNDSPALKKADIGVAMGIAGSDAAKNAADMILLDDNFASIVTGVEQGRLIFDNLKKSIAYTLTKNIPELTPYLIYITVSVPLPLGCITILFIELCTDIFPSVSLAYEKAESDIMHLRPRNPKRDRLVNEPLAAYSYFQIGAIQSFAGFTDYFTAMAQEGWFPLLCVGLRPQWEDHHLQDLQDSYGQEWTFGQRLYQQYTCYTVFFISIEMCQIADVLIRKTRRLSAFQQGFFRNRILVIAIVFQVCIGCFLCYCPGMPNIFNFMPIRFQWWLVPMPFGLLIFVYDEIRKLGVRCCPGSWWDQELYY
# T1 sequence (P18597 whole entry partner): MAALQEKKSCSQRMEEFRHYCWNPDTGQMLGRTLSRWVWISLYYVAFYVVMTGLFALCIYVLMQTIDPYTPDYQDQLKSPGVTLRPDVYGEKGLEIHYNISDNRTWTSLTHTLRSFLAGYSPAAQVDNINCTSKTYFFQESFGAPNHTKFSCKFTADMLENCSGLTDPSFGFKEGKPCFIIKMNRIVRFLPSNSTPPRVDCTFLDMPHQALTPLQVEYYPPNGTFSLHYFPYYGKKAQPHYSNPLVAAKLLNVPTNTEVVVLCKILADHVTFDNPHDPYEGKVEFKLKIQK
compound,measurement,setting,value
CCCC(=O)c1cnc2c(OC)nccc2c1N[C@H](C)c1ccccc1 [Example 21],ED50,[1],2.1 mg/kg
same,IC50,H^+ /K^+ ATPase; [4],45.7 µM
same,Acetic acid: Percentage of healing in 30 mg/kg,[2],22.0%
same,ED50,ethanol-induced lesions,11.2 mg/kg
same,ED50,stress-induced ulcer,13 mg/kg
same,No. of Death,"ICR mice; female, 40 mg/kg oral",0
same,No. of Death,"ICR mice; female, 200 mg/kg oral",0
same,No. of Death,"ICR mice; female, 1000 mg/kg oral",1
same,No. of Death,"ICR mice; female, 5000 mg/kg oral",6
same,No. of Death,"ICR mice; male, 40 mg/kg oral",0
same,No. of Death,"ICR mice; male, 200 mg/kg oral",0
same,No. of Death,"ICR mice; male, 1000 mg/kg oral",0
same,No. of Death,"ICR mice; male, 5000 mg/kg oral",6
same,mortality at 336 h,"[3]; 40 mg/kg, female, 40 mg/kg oral",0%
same,mortality at 336 h,"[3]; 40 mg/kg, male, 40 mg/kg oral",0%
same,mortality at 336 h,"[3]; 200 mg/kg, female, 200 mg/kg oral",0%
same,mortality at 336 h,"[3]; 200 mg/kg, male, 200 mg/kg oral",0%
same,mortality at 336 h,"[3]; 1000 mg/kg, female, 1000 mg/kg oral",17%
same,mortality at 336 h,"[3]; 1000 mg/kg, male, 1000 mg/kg oral",0%
same,mortality at 336 h,"[3]; 5000 mg/kg, female, 5000 mg/kg oral",100%
same,mortality at 336 h,"[3]; 5000 mg/kg, male, 5000 mg/kg oral",100%
same,LD50 at 336 h,[3]; female,1130 mg/kg
same,LD50 at 336 h,[3]; male,2340 mg/kg
same,ED50,mepirizole-induced ulcer,64.1 mg/kg
same,ED50,gastric secretion,11.7 mg/kg
CCCCc1ccc(Nc2c(C(=O)OCC)cnc3c(OC)nccc23)cc1 [Example 13],IC50,H^+ /K^+ ATPase; [4],25.1 µM
same,Gastric juice Secretion Inhibition (% at 12.5 mg/kg),gastric secretion,42.1%
CCCC(=O)c1cnc2c(OCC)nccc2c1Nc1ccccc1SC [Example 34],ED50,[1],4.9 mg/kg
same,IC50,H^+ /K^+ ATPase; [4],23.4 µM
same,ED50,ethanol-induced lesions,30.6 mg/kg
same,ED50,gastric secretion,30 mg/kg
CCOC(=O)c1cnc2c(N3CCOCC3)nccc2c1Nc1cccc(C(F)(F)F)c1 [Example 55],IC50,H^+ /K^+ ATPase; [4],16.8 µM
CCCC(=O)c1cnc2c(OC)nccc2c1NCCCCc1ccccc1 [Example 29],IC50,H^+ /K^+ ATPase; [4],26.9 µM
CCCC(=O)c1cnc2c(OCC)nccc2c1NC1CCCc2ccccc21 (stereo not drawn) [Example 42],IC50,H^+ /K^+ ATPase; [4],14.7 µM
CCCC(=O)c1cnc2c(OC)nccc2c1Nc1ccc2c(c1)CCC2 [Example 31],IC50,H^+ /K^+ ATPase; [4],14.9 µM
CCCC(=O)c1cnc2c(OC(C)C)nccc2c1Nc1ccccc1SC [Example 44],IC50,H^+ /K^+ ATPase; [4],11.4 µM
CCCC(=O)c1cnc2c(OCC)nccc2c1NCCCCc1ccccc1 [Example 41],IC50,H^+ /K^+ ATPase; [4],12.6 µM
CCCCc1ccc(Nc2c(C(=O)CCC)cnc3c(OCC)nccc23)cc1 [Example 35],IC50,H^+ /K^+ ATPase; [4],20.5 µM
CCOC(=O)c1cnc2c(OC)nccc2c1N[C@@H](C)c1ccccc1 [Example 15],ED50,[1],2.1 mg/kg
same,ED50,ethanol-induced lesions,12.8 mg/kg
same,ED50,gastric secretion,30 mg/kg
"CCCC(=O)c1cnc2c(OC(C)C)nccc2c1Nc1ccccc1C [Example 43, 3-Butyryl-8-isopropoxy-4-(2-methylphenylamino)-1,7-naphthyridine]",IC50,H^+ /K^+ ATPase; [4],18.2 µM
CCCC(=O)c1cnc2c(OC)nccc2c1NC1CCCc2ccccc21 (stereo not drawn) [Example 32],IC50,H^+ /K^+ ATPase; [4],75 µM
"COc1ccc2[nH]c([S+]([O-])Cc3ncc(C)c(OC)c3C)nc2c1 (stereo not drawn) [Omeprazole, reference compound]",ED50,[1],1.2 mg/kg
same,IC50,H^+ /K^+ ATPase; control,57.5 µM
same,Acetic acid: Percentage of healing in 30 mg/kg,[2],27.1%
same,ED50,ethanol-induced lesions,17.5 mg/kg
same,ED50,stress-induced ulcer,4.4 mg/kg
same,ED50,mepirizole-induced ulcer,2.8 mg/kg
CCOC(=O)c1cnc2c(N3CCOCC3)nccc2c1Nc1ccccc1OC [Example 49],Gastric juice Secretion Inhibition (% at 12.5 mg/kg),gastric secretion,35.8%
CCOC(=O)c1cnc2c(OC)nccc2c1Nc1ccc(F)cc1 [Example 11],IC50,H^+ /K^+ ATPase; [4],31.6 µM
CCCC(=O)c1cnc2c(OC(C)C)nccc2c1Nc1ccccc1C(F)(F)F [Example 45],IC50,H^+ /K^+ ATPase; [4],39.3 µM
CCCC(=O)c1cnc2c(OCC)nccc2c1N[C@H](C)c1ccccc1 [Example 37],IC50,H^+ /K^+ ATPase; [4],28 µM
same,ED50,gastric secretion,13.3 mg/kg
